Consider 27 compounds from patent US10758534B2 (Vertex Pharmaceuticals Incorporated, priority 2014, dated 2020).

The target of this test is T1, F508del (Homo sapiens, UniProt P13569, DEL508-508).
T1 construct: expressed in transfected cells
T1 sequence (P13569 with tags, fused parts or gaps DEL508-508): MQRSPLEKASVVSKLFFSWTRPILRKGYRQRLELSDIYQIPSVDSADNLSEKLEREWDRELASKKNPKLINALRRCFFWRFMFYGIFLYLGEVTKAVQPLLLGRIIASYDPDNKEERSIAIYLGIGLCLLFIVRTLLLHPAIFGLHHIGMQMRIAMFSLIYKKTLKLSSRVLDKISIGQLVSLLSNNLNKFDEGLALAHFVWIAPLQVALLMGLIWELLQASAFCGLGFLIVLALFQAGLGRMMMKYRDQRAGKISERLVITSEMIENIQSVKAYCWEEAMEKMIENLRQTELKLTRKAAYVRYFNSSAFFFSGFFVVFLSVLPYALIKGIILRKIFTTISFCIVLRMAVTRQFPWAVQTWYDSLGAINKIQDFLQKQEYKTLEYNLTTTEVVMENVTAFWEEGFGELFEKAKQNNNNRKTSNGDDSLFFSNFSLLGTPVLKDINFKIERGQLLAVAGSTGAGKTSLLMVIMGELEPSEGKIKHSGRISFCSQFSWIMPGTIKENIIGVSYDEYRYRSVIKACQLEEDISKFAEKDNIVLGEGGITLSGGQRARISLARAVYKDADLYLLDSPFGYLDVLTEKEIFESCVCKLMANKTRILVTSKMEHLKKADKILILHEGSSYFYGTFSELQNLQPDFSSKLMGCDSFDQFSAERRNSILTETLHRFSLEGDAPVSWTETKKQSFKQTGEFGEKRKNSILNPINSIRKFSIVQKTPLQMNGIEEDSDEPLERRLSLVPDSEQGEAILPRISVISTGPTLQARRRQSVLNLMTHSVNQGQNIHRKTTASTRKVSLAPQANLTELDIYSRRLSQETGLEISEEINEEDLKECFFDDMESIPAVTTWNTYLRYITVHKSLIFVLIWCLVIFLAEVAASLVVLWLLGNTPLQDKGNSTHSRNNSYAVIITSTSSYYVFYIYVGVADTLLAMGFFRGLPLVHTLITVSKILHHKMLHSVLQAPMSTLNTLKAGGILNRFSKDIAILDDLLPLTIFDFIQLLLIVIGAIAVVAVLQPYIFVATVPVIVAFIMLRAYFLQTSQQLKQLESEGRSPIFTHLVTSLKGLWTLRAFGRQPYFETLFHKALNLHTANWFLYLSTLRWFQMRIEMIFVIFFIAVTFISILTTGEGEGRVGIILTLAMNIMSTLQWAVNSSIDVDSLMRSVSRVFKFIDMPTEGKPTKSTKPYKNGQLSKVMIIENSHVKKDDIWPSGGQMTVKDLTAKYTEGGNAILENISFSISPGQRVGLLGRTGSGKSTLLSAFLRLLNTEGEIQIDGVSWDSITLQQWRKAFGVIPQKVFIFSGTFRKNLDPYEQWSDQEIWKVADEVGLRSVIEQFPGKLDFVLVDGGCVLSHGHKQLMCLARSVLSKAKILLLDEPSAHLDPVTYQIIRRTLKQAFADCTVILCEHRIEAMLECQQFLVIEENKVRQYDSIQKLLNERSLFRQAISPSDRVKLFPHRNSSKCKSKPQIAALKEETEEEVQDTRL
Description: Protocol 1: membrane potential optical assay (FLIPR III, voltage sensing dye), identification of potentiator compounds. The format is cell-based. The note with it: Table 3, compounds of Table 1. Summed up:
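Membrane potential in forskolin-activated, temperature-rescued F508del NIH 3T3 cells is followed with a voltage-sensing dye on FLIPR III. A chloride ion gradient created at the single addition step provides the driving force, after prior compound treatment.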
In the case of `CCC1(C)CC(C)CN1c1nc(-c2cc(F)cc(OCC(C)C)c2)ccc1C(=O)NS(=O)(=O)c1cccc(N)n1` (single isomer, unassigned) [Compound 1729, N-[(6-amino-2-pyridyl)sulfonyl]-2-(2-ethyl-2,4-dimethyl-pyrrolidin-1-yl)-6-(3-fluoro-5-isobutoxy-phenyl)pyridine-3-carboxamide], the EC30 result is reported as “+++ (“+++” means <3 uM)”.
In the case of `CC(C)COc1cc(F)cc(-c2ccc(C(=O)NS(=O)(=O)c3cccc(N)n3)c(N3CCC(C)(C)C3C)n2)c1` (stereo not drawn) [Compound 1156, N-[(6-amino-2-pyridyl)sulfonyl]-6-(3-fluoro-5-isobutoxy-phenyl)-2-(2,3,3-trimethylpyrrolidin-1-yl)pyridine-3-carboxamide] it was “+++ (“+++” means <3 uM)”; in that of `CC(C)COc1cc(F)cc(-c2ccc(C(=O)NS(=O)(=O)c3cccc(N)n3)c(OCCc3ccccc3)n2)c1` [Compound 1426, N-[(6-amino-2-pyridyl)sulfonyl]-6-(3-fluoro-5-isobutoxy-phenyl)-2-phenethyloxy-pyridine-3-carboxamide], “+++ (“+++” means <3 uM)”; in that of `C[C@@H]1CN(c2nc(-c3ccc(C(F)(F)F)cc3)ccc2C(=O)NS(=O)(=O)c2ccc[nH]c2=O)C(C)(C)C1` [Compound 1799, N-[(2-oxo-1H-pyridin-3-yl)sulfonyl]-6-[4-(trifluoromethyl)phenyl]-2-[(4S)-2,2,4-trimethylpyrrolidin-1-yl]pyridine-3-carboxamide], “+++ (“+++” means <3 uM)”.
Regarding `CC(C)Oc1cc(F)cc(-c2ccc(C(=O)NS(=O)(=O)c3ccn[nH]3)c(N3[C@H](C)CC[C@@H]3C)n2)c1` [Compound 1285, 2-[(2S,5R)-2,5-dimethylpyrrolidin-1-yl]-6-(3-fluoro-5-isopropoxy-phenyl)-N-(1H-pyrazol-5-ylsulfonyl)pyridine-3-carboxamide], the EC30 entry is given as “+++ (“+++” means <3 uM)”.
`CCC1CCCN1c1nc(-c2cc(F)cc(OCC(C)C)c2)ccc1C(=O)NS(=O)(=O)c1cccc(N)n1` (stereo not drawn) [Compound 1218, N-[(6-amino-2-pyridyl)sulfonyl]-2-(2-ethylpyrrolidin-1-yl)-6-(3-fluoro-5-isobutoxy-phenyl)pyridine-3-carboxamide]: the EC30 entry was “+++ (“+++” means <3 uM)”.
With `COc1ccccc1-c1ccc(C(=O)NS(=O)(=O)c2cccc(N)n2)c(Oc2c(C)cc(C)cc2C)n1` [Compound 1173, N-[(6-amino-2-pyridyl)sulfonyl]-6-(2-methoxyphenyl)-2-(2,4,6-trimethylphenoxy)pyridine-3-carboxamide], the EC30 entry was “+++ (“+++” means <3 uM)”.
`C[C@@H]1CN(c2nc(C3=COCC3)ccc2C(=O)NS(=O)(=O)c2cccc(N)n2)C(C)(C)C1` [Compound 1455, N-[(6-amino-2-pyridyl)sulfonyl]-6-(2,3-dihydrofuran-4-yl)-2-[(4S)-2,2,4-trimethylpyrrolidin-1-yl]pyridine-3-carboxamide]: the EC30 entry was “+++ (“+++” means <3 uM)”.
In the case of `C[C@@H]1CN(c2ncc(Cl)cc2C(=O)NS(=O)(=O)c2cccc(N)n2)C(C)(C)C1` [Compound 1603, N-[(6-amino-2-pyridyl)sulfonyl]-5-chloro-2-[(4S)-2,2,4-trimethylpyrrolidin-1-yl]pyridine-3-carboxamide], the EC30 result was “++ (“++” means between 3 uM and 10 uM)”.
On to `CCN(CC)c1ccc(C)c(-c2ccc(C(=O)NS(=O)(=O)c3cccc(N)n3)c(N3CC(C)CC3(C)C)n2)n1` (stereo not drawn) [Compound 1383, N-[(6-amino-2-pyridyl)sulfonyl]-6-[6-(diethylamino)-3-methyl-2-pyridyl]-2-(2,2,4-trimethylpyrrolidin-1-yl)pyridine-3-carboxamide], for which the EC30 result is reported as “+++ (“+++” means <3 uM)”.
As to `CC(C)COc1cc(F)cc(-c2ccc(C(=O)NS(=O)(=O)c3ccn[nH]3)c(N3CCC(C)(C)CC3)n2)c1` [Compound 1110, 2-(4,4-dimethyl-1-piperidyl)-6-(3-fluoro-5-isobutoxy-phenyl)-N-(1H-pyrazol-5-ylsulfonyl)pyridine-3-carboxamide], the EC30 result is given as “+++ (“+++” means <3 uM)”.
For `CC1CN(c2ncc(-c3cc(OC(C)C)cc(C(F)(F)F)c3)cc2C(=O)NS(=O)(=O)c2cccc(N)n2)C(C)(C)C1` (stereo not drawn) [Compound 1815, N-[(6-amino-2-pyridyl)sulfonyl]-5-[3-isopropoxy-5-(trifluoromethyl)phenyl]-2-(2,2,4-trimethylpyrrolidin-1-yl)pyridine-3-carboxamide], the EC30 entry is “+++ (“+++” means <3 uM)”.
As to `Cc1cc(C)c(Oc2nc(-c3ccccn3)ccc2C(=O)NS(=O)(=O)c2cccc(N)n2)c(C)c1` [Compound 1278, N-[(6-amino-2-pyridyl)sulfonyl]-6-(2-pyridyl)-2-(2,4,6-trimethylphenoxy)pyridine-3-carboxamide], the EC30 result is recorded as “+ (“+” means greater than 10 uM)”.
In the case of `C[C@@H]1CN(c2nc(-c3ccc(F)c(F)c3)ccc2C(=O)NS(=O)(=O)c2cccnc2N)C(C)(C)C1` [Compound 1854, N-[(2-amino-3-pyridyl)sulfonyl]-6-(3,4-difluorophenyl)-2-[(4S)-2,2,4-trimethylpyrrolidin-1-yl]pyridine-3-carboxamide] it was “+++ (“+++” means <3 uM)”.
In the case of `CCOc1ncc(-c2ccc(C(=O)NS(=O)(=O)c3cccc(N)n3)c(N3C[C@@H](C)CC3(C)C)n2)cc1C` [Compound 1727, N-[(6-amino-2-pyridyl)sulfonyl]-6-(6-ethoxy-5-methyl-3-pyridyl)-2-[(4S)-2,2,4-trimethylpyrrolidin-1-yl]pyridine-3-carboxamide] it was “+++ (“+++” means <3 uM)”; in that of `CC1CN(c2ncccc2C(=O)NS(=O)(=O)c2cccc(N3CCC(c4ccccc4)C3)n2)C(C)(C)C1` (stereo not drawn) [Compound 1708, N—[[6-(3-phenylpyrrolidin-1-yl)-2-pyridyl]sulfonyl]-2-(2,2,4-trimethylpyrrolidin-1-yl)pyridine-3-carboxamide], “+++ (“+++” means <3 uM)”.
As for `CCCOc1ccc(-c2ccc(C(=O)NS(=O)(=O)c3ccc[nH]c3=O)c(Oc3c(C)cc(C)cc3C)n2)cc1F` [Compound 1022, 6-(3-fluoro-4-propoxy-phenyl)-N-[(2-oxo-1H-pyridin-3-yl)sulfonyl]-2-(2,4,6-trimethylphenoxy)pyridine-3-carboxamide], the EC30 entry was “++ (“++” means between 3 uM and 10 uM)”.
Consider `CC(C)COc1cc(F)cc(-c2ccc(C(=O)NS(=O)(=O)c3cccc(N)n3)c(N3C[C@H](C)CC3(C)C)n2)c1` [Compound 1289, N-[(6-amino-2-pyridyl)sulfonyl]-6-(3-fluoro-5-isobutoxy-phenyl)-2-[(4R)-2,2,4-trimethylpyrrolidin-1-yl]pyridine-3-carboxamide], for which the EC30 result is listed as “+++ (“+++” means <3 uM)”.
Regarding `Cc1cc(C)c(Oc2nc(C(C)(C)C)ccc2C(=O)NS(=O)(=O)c2cccc(NCCO)n2)c(C)c1` [Compound 916, 6-tert-butyl-N-[[6-(2-hydroxyethylamino)-2-pyridyl]sulfonyl]-2-(2,4,6-trimethylphenoxy)pyridine-3-carboxamide], the EC30 entry was “+++ (“+++” means <3 uM)”.
On to `CC(C)COc1cc(F)cc(-c2ccc(C(=O)NS(=O)(=O)N[C@H]3CCNC3)c(N3C[C@@H](C)CC3(C)C)n2)c1` [Compound 1935, 6-(3-fluoro-5-isobutoxy-phenyl)-N—[[(3S)-pyrrolidin-3-yl]sulfamoyl]-2-[(4S)-2,2,4-trimethylpyrrolidin-1-yl]pyridine-3-carboxamide], for which the EC30 entry is “+++ (“+++” means <3 uM)”.
As to `Cc1cc(C)c(Oc2nc(N(C)C)ccc2C(=O)NS(=O)(=O)c2cccc(N)n2)c(C)c1` [Compound 1306, N-[(6-amino-2-pyridyl)sulfonyl]-6-(dimethylamino)-2-(2,4,6-trimethylphenoxy)pyridine-3-carboxamide], the EC30 entry was “+++ (“+++” means <3 uM)”.
Regarding `CC(C)Oc1ccc(-c2ccc(C(=O)NS(=O)(=O)c3cccc(N)n3)c(N3CCC[C@H](C)C3)n2)cn1` [Compound 836, N-[(6-amino-2-pyridyl)sulfonyl]-6-(6-isopropoxy-3-pyridyl)-2-[(3S)-3-methyl-1-piperidyl]pyridine-3-carboxamide], the EC30 entry is “++ (“++” means between 3 uM and 10 uM)”.
As for `CC1CN(c2nc(-c3ccccc3)ccc2C(=O)NS(=O)(=O)c2cccc(N)n2)C(C)(C)C1` (stereo not drawn) [Compound 1334, N-[(6-amino-2-pyridyl)sulfonyl]-6-phenyl-2-(2,2,4-trimethylpyrrolidin-1-yl)pyridine-3-carboxamide], the EC30 entry is “+++ (“+++” means <3 uM)”.
As for `COc1ccc(-c2ccc(C(=O)NS(=O)(=O)c3cccc(N)n3)c(N3[C@H](C)CC[C@@H]3C)n2)cc1` [Compound 1215, N-[(6-amino-2-pyridyl)sulfonyl]-2-[(2S,5R)-2,5-dimethylpyrrolidin-1-yl]-6-(4-methoxyphenyl)pyridine-3-carboxamide], the EC30 result is “++ (“++” means between 3 uM and 10 uM)”.
On to `Cc1nc(OC(C)C)ccc1-c1ccc(C(=O)NS(=O)(=O)c2cccc(N)n2)c(N2CC(C)CC2(C)C)n1` (stereo not drawn) [Compound 814, N-[(6-amino-2-pyridyl)sulfonyl]-6-(6-isopropoxy-2-methyl-3-pyridyl)-2-(2,2,4-trimethylpyrrolidin-1-yl)pyridine-3-carboxamide], for which the EC30 result was “+++ (“+++” means <3 uM)”.
In the case of `C[C@@H]1CN(c2nc(-c3ccc(O)cc3)ccc2C(=O)NS(=O)(=O)c2cccnc2N)C(C)(C)C1` [Compound 1712, N-[(2-amino-3-pyridyl)sulfonyl]-6-(4-hydroxyphenyl)-2-[(4S)-2,2,4-trimethylpyrrolidin-1-yl]pyridine-3-carboxamide] it was “+++ (“+++” means <3 uM)”; in that of `Cc1ccccc1C1CCCCCN1c1ncccc1C(=O)NS(=O)(=O)c1cccc(N)n1` (stereo not drawn) [Compound 1772, N-[(6-amino-2-pyridyl)sulfonyl]-2-[2-(o-tolyl)azepan-1-yl]pyridine-3-carboxamide], “++ (“++” means between 3 uM and 10 uM)”.
